Test [1] is filed under the species Homo sapiens. Nature of the test: Inhibition of human platelet aggregation induced by high affinity thrombin receptor agonist peptide( ha-TRAP). Type of test: functional.
The target of test [2] is T1, Proteinase-activated receptor 1 (Homo sapiens, UniProt P25116).
T1 sequence (P25116 whole entry): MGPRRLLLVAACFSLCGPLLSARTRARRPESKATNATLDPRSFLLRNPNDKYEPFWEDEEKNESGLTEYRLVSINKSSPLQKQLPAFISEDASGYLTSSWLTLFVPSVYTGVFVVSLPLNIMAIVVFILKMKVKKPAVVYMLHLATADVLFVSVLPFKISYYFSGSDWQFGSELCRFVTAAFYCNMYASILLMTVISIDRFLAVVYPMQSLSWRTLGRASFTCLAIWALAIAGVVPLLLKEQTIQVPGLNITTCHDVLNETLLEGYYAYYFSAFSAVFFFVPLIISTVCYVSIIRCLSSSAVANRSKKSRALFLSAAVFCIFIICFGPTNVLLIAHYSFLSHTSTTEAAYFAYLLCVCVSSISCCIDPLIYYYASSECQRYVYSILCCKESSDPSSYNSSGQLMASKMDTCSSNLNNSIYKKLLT
As to the kind of experiment: Inhibitory concentration against potent thrombin receptor-1 (PAR-1) on human platelets.

For test [3], the species on record is Homo sapiens. Nature of the test: Inhibition of human platelet aggregation induced by thrombin. Type of test: functional.
The target of test [4] is T1, Proteinase-activated receptor 1. Nature of the test: Inhibitory concentration against potent thrombin receptor-1 (PAR-1) on human platelets; Inactive.

Where only a bound is given, the exact number is not on record here.

As usually defined, the IC50 is the concentration that inhibits the measured activity by half. Higher therefore signals weaker potency in that assay. Consider `CCCCn1c(=N)n(CC(=O)c2cc(C(C)(C)C)c(O)c(C(C)(C)C)c2)c2ccccc21`, for which the half-maximal inhibitory concentration (IC50) in test [1] worked out at 825 nM; in test [2] it was 359 nM; in test [3], 10000 nM. On to `O=C(Cn1c(=O)n(Cc2ccccc2)c2ccccc21)c1ccc(F)cc1`, for which the IC50 result in test [4] is given as “Not Active”. As to `CC(C)(C)c1cc(C(=O)Cn2c(=N)n(Cc3ccc(Cl)c(Cl)c3)c3ccccc32)cc(C(C)(C)C)c1O`, in test [2], the midpoint of inhibition, the IC50, lay at 1320 nM. As for `CC(C)(C)c1cc(C(=O)Cn2c(=N)n(CCN3CCOCC3)c3ccccc32)cc(C(C)(C)C)c1O`, the half-inhibitory concentration (IC50) was 2000 nM in test [1], 98 nM in test [2] and greater than 10000 nM in test [3]. Consider `Cn1c(=O)n(CC(=O)c2cc(C(C)(C)C)c(O)c(C(C)(C)C)c2)c2ccccc21`, for which the IC50 entry in test [4] was “Not Active”. Molecule `CCCCCCCn1c(=N)n(CC(=O)c2cc(C(C)(C)C)c(O)c(C(C)(C)C)c2)c2ccccc21` gave an IC50 in test [2] of 964 nM.

On to `CCC(=O)c1cc(C(C)(C)C)c(O)c(C(C)(C)C)c1`, for which, in test [4], the IC50 entry was “Not Active”. For the molecule `O=C(Cn1c(=O)n(Cc2ccccc2)c2ccccc21)c1ccc(O)c(O)c1`, the IC50 entry in test [4] is “Not Active”. Same read-out and setting: in the case of `N#Cc1ccc(C(=O)Cn2c(=O)n(Cc3ccccc3)c3ccccc32)cc1` it was “Not Active”. On to `CC(C)(C)c1cc(C(=O)Cn2c(=N)n(Cc3ccccc3)c3ccccc32)cc(C(C)(C)C)c1O`, for which the half-inhibitory concentration (IC50) in test [1] amounted to 265 nM; in test [2] it was 65 nM; in test [3], 600 nM.

Take `Cc1ccc(C(=O)Cn2c(=O)n(Cc3ccccc3)c3ccccc32)c(C)c1`: the IC50 entry in test [4] is “Not Active”. In turn, `CC(C)(C)c1cc(C(=O)Cn2c(=N)n(CCN3CCCCC3)c3ccccc32)cc(C(C)(C)C)c1O` showed a half-maximal inhibitory concentration (IC50) in test [2] of 2870 nM. Take `Cc1ccc(Cn2c(=N)n(CC(=O)c3cc(C(C)(C)C)c(O)c(C(C)(C)C)c3)c3ccccc32)cc1`: the IC50 in test [1] stood at 575 nM; in test [2] it was 33 nM; in test [3], 1500 nM. For `O=C(Cn1c(=O)n(Cc2ccccc2)c2ccccc21)c1ccc(Cl)cc1Cl`, in test [4], the IC50 entry was “Not Active”. `Cn1c(=N)n(CC(=O)c2cc(C(C)(C)C)c(O)c(C(C)(C)C)c2)c2ccccc21` displayed an IC50 in test [2] of 900 nM. For `COc1ccc(OC)c(C(=O)Cn2c(=O)n(Cc3ccccc3)c3ccccc32)c1`, in test [4], the IC50 entry is “Not Active”. On the same count and under the same terms, the value for `Cc1ccc(C(=O)Cn2c(=O)n(Cc3ccccc3)c3ccccc32)cc1` was “Not Active”. Consider `CC(C)(C)c1cc(C(=O)Cn2c(N)nc3ccccc32)cc(C(C)(C)C)c1O`, for which inhibition in test [2] was half-maximal at 1500 nM (IC50).

Take `O=C(Cn1c(=O)n(Cc2ccccc2)c2ccccc21)c1ccc(Br)cc1`: the IC50 result in test [4] was “Not Active”. For `CC(C)(C)c1ccc(Cn2c(=N)n(CC(=O)c3cc(C(C)(C)C)c(O)c(C(C)(C)C)c3)c3ccccc32)cc1`, the IC50 in test [2] was found to be 734 nM. For `Cc1cc(C(=O)Cn2c(=O)n(Cc3ccccc3)c3ccccc32)ccc1Cl`, the IC50 result in test [4] was “Not Active”.
